In brackets after ≈: the same amount, converted by molar mass. Where a SMILES comes first, the peptide text is derived from it. Bridges are numbered along the chain shown (N, C = ends). [ ]: non-standard residue; d: D form. The star is where a group is joined. Phe(3,5-F2) = N[C@@H](Cc1cc(F)cc(F)c1)C(=O)O; Pip(4S-Me) = C[C@H]1CCN[C@H](C(=O)O)C1; Pro(4R-Me) = C[C@H]1CN[C@H](C(=O)O)C1; Tiq1c(1S) = O=C(O)[C@H]1NCCc2ccccc21; Bta = N[C@@H](Cc1csc2ccccc12)C(=O)O; Heptenoyl(2E) = CCCC/C=C/C(=O)*; Pip = O=C(O)[C@@H]1CCCCN1; Abu = CC[C@H](N)C(=O)O; Dap = NC[C@H](N)C(=O)O
Experiments:
Type in all cases: functional
Pseudomonas aeruginosa = experiment: Antibacterial activity against Pseudomonas aeruginosa PAO1 incubated for 16 to 18 hrs by broth microdilution method
Neisseria gonorrhoeae = experiment: Antibacterial activity against chloramphenicol-resistant Neisseria gonorrhoeae N.279 incubated for 16 to 18 hrs by broth microdilution method
Listeria innocua = experiment: Antibacterial activity against Listeria innocua incubated for 16 to 18 hrs by broth microdilution method
Staphylococcus aureus [1] = experiment: Antibacterial activity against Staphylococcus aureus subsp. aureus Newman clinical isolate incubated for 16 to 18 hrs by broth microdilution method
Escherichia coli [2] = experiment: Antibacterial activity against Escherichia coli MC4100 expressing lptD-4213 incubated for 16 to 18 hrs by broth microdilution method
Staphylococcus aureus [3] = experiment: Antibacterial activity against methicillin-resistant Staphylococcus aureus 1784A incubated for 16 to 18 hrs by broth microdilution method
Escherichia coli [4] = experiment: Antibacterial activity against Escherichia coli MC4100 incubated for 16 to 18 hrs by broth microdilution method
Streptococcus pneumoniae = experiment: Antibacterial activity against Streptococcus pneumoniae D39 incubated for 16 to 18 hrs by broth microdilution method
Staphylococcus aureus [5] = experiment: Antibacterial activity against Staphylococcus aureus ATCC 29213 incubated for 16 to 18 hrs by broth microdilution method
Neisseria meningitidis = experiment: Antibacterial activity against Neisseria meningitidis H44/76 incubated for 16 to 18 hrs by broth microdilution method
Enterococcus faecalis = experiment: Antibacterial activity against vancomycin-resistant Enterococcus faecalis V583 incubated for 16 to 18 hrs by broth microdilution method
Bacillus subtilis = experiment: Antibacterial activity against Bacillus subtilis PY79 incubated for 16 to 18 hrs by broth microdilution method

| Compound | MIC (Pseudomonas aeruginosa) | MIC (Neisseria gonorrhoeae) | MIC (Listeria innocua) | MIC (Staphylococcus aureus [1]) | MIC (Escherichia coli [2]) | MIC (Staphylococcus aureus [3]) | MIC (Escherichia coli [4]) | MIC (Streptococcus pneumoniae) | MIC (Staphylococcus aureus [5]) | MIC (Neisseria meningitidis) | MIC (Enterococcus faecalis) | MIC (Bacillus subtilis) |
| --- | --- | --- | --- | --- | --- | --- | --- | --- | --- | --- | --- | --- |
| CCCC/C=C/C(=O)N[C@@H](Cc1csc2ccccc12)C(=O)N[C@H]1COC(=O)[C@@H]2C[C@@H](C)CN2C(=O)[C@H](CC)NC(=O)[C@@H]2CCCCN2C(=O)[C@@H]2CCCN2C1=O ({Heptenoyl(2E)}-[Bta]SP[Pip][Abu][Pro(4R-Me)]; ester 2-C) | > 128 µg/mL | > 128 µg/mL | 0.125 µg/mL (≈ 0.155 µM) | 8 µg/mL (≈ 9.94 µM) | > 128 µg/mL | > 128 µg/mL | > 128 µg/mL | 8 µg/mL (≈ 9.94 µM) | 8 µg/mL (≈ 9.94 µM) | 32 µg/mL (≈ 39.8 µM) | 8 µg/mL (≈ 9.94 µM) | 8 µg/mL (≈ 9.94 µM) |
| C[C@@H]1C[C@H]2C(=O)O[C@@H](C)[C@H](NC(=O)[C@H](Cc3cc(F)cc(F)c3)NC(=O)/C=C/CC3CC3)C(=O)N3CCC[C@H]3C(=O)N3CCCC[C@H]3C(=O)N[C@@H](C)C(=O)N2C1 | > 128 µg/mL | 0.125 µg/mL (≈ 0.16 µM) | ≤ 0.0625 µg/mL | 0.0625 µg/mL (≈ 0.0798 µM) | > 128 µg/mL | 0.125 µg/mL (≈ 0.16 µM) | > 128 µg/mL | ≤ 0.0625 µg/mL | 0.0078 µg/mL (≈ 0.00996 µM) | 0.25 µg/mL (≈ 0.319 µM) | 0.0078 µg/mL (≈ 0.00996 µM) | ≤ 0.0625 µg/mL |
| CCCC/C=C/C(=O)N[C@@H](Cc1cc(F)cc(F)c1)C(=O)N[C@H]1CNC(=O)[C@@H]2C[C@@H](C)CN2C(=O)[C@H](C)NC(=O)[C@@H]2CCCCN2C(=O)[C@@H]2CCCN2C1=O ({Heptenoyl(2E)}-[Phe(3,5-F2)][Dap]P[Pip]A[Pro(4R-Me)]; lactam 2-C) | > 128 µg/mL | 1 µg/mL (≈ 1.3 µM) | ≤ 0.0625 µg/mL | 16 µg/mL (≈ 20.8 µM) | > 128 µg/mL | 16 µg/mL (≈ 20.8 µM) | > 128 µg/mL | 2 µg/mL (≈ 2.6 µM) | 4 µg/mL (≈ 5.2 µM) | 1 µg/mL (≈ 1.3 µM) | 0.5 µg/mL (≈ 0.649 µM) | 4 µg/mL (≈ 5.2 µM) |
| CCCC/C=C/C(=O)N[C@@H](Cc1cc(F)cc(F)c1)C(=O)N[C@H]1COC(=O)[C@@H]2C[C@@H](C)CN2C(=O)[C@H](C)NC(=O)[C@@H]2C[C@@H](C)CCN2C(=O)[C@@H]2CCCN2C1=O ({Heptenoyl(2E)}-[Phe(3,5-F2)]SP[Pip(4S-Me)]A[Pro(4R-Me)]; ester 2-C) | > 128 µg/mL | 0.0625 µg/mL (≈ 0.0796 µM) | ≤ 0.0625 µg/mL | 0.5 µg/mL (≈ 0.637 µM) | > 128 µg/mL | 4 µg/mL (≈ 5.1 µM) | > 128 µg/mL | ≤ 0.0625 µg/mL | 0.0156 µg/mL (≈ 0.0199 µM) | 0.125 µg/mL (≈ 0.159 µM) | 0.0156 µg/mL (≈ 0.0199 µM) | ≤ 0.0625 µg/mL |
| CCCC/C=C/C(=O)N[C@@H](Cc1cc(F)cc(F)c1)C(=O)N[C@H]1COC(=O)[C@@H]2C[C@@H](C)CN2C(=O)[C@H](CC)NC(=O)[C@@H]2c3ccccc3CCN2C(=O)[C@@H]2CCCN2C1=O ({Heptenoyl(2E)}-[Phe(3,5-F2)]SP[Tiq1c(1S)][Abu][Pro(4R-Me)]; ester 2-C) | > 128 µg/mL | 8 µg/mL (≈ 9.6 µM) | 0.125 µg/mL (≈ 0.15 µM) | 8 µg/mL (≈ 9.6 µM) | > 128 µg/mL | 4 µg/mL (≈ 4.8 µM) | > 128 µg/mL | 0.5 µg/mL (≈ 0.6 µM) | 4 µg/mL (≈ 4.8 µM) | 8 µg/mL (≈ 9.6 µM) | 0.25 µg/mL (≈ 0.3 µM) | 2 µg/mL (≈ 2.4 µM) |
| C[C@@H]1C[C@H]2C(=O)O[C@@H](C)[C@H](NC(=O)[C@H](Cc3cc(F)cc(F)c3)NC(=O)/C=C/CCCCC(=O)O)C(=O)N3CCC[C@H]3C(=O)N3CCCC[C@H]3C(=O)N[C@@H](C)C(=O)N2C1 | > 128 µg/mL | 1 µg/mL (≈ 1.21 µM) | 0.5 µg/mL (≈ 0.603 µM) | 64 µg/mL (≈ 77.2 µM) | > 128 µg/mL | 64 µg/mL (≈ 77.2 µM) | > 128 µg/mL | 0.125 µg/mL (≈ 0.151 µM) | 32 µg/mL (≈ 38.6 µM) | 4 µg/mL (≈ 4.83 µM) | 8 µg/mL (≈ 9.65 µM) | 16 µg/mL (≈ 19.3 µM) |
| CN[C@@H](CC(C)C)C(=O)N[C@H]1C(=O)N[C@@H](CC(N)=O)C(=O)N[C@H]2C(=O)N[C@H]3C(=O)N[C@H](C(=O)N[C@@H](C(=O)O)c4cc(O)cc(O)c4-c4cc3ccc4O)[C@H](O)c3ccc(c(Cl)c3)Oc3cc2cc(c3O[C@H]2O[C@@H](CO)[C@H](O)[C@@H](O)[C@@H]2O[C@@H]2C[C@@](C)(N)[C@@H](O)[C@@H](C)O2)Oc2ccc(cc2Cl)[C@H]1O | – | – | 1 µg/mL (≈ 0.69 µM) | – | – | 1.3 µg/mL (≈ 0.897 µM) | – | 0.25 µg/mL (≈ 0.173 µM) | – | – | – | 0.16 µg/mL (≈ 0.11 µM) |
